Here are results for ten molecules from ChEMBL document CHEMBL1201862, “PubChem BioAssay data set” (2004).

Among the test systems are MDA-MB-435; OVCAR-5; HL-60; SNB-19; 786-0; K562; M14; RPMI-8226; UACC-257; UO-31; PC-3; SF-295; OVCAR-3; BT-549; HT-29; DU-145; A498; HCC 2998; COLO 205.
Holding throughout (test): DTP human tumour cell line panel, 48 h

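Each compound was tested at five concentrations against cells in 96-well plates for 48 hours. At the GI50, growth is halved.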 Activity calls are given as the source filed them. No stated cut-off is given here; in the data, active = GI50 up to about 1.1 µM and inactive = higher.

Consider `CN(C)C=O.O=C(Nc1nnn[nH]1)c1nc(O)cc(-c2ccccc2)n1`, for which the GI50 with MDA-MB-435, with OVCAR-5, with HL-60, with SNB-19, in the experiment on 786-0 and in the experiment on K562 was > 100 µM (inactive) throughout. For the same molecule, the GI50 in the experiment on M14, with RPMI-8226, with UACC-257, in the experiment on UO-31, with PC-3 and in the experiment on SF-295 was > 100 µM (inactive) throughout. The GI50 in the experiment on OVCAR-3, in the experiment on BT-549, in the experiment with HT-29, with DU-145, in the experiment with A498 and in the experiment on HCC 2998 was > 100 µM (inactive) throughout. Further, the GI50 with COLO 205 was > 100 µM (inactive).

On to `CC1=C/C(=C(/c2ccc(O)c(C)c2)c2ccccc2C(=O)O)C=CC1=O`, for which the GI50 in the experiment on MDA-MB-435 was 17.6 µM (inactive); in the experiment with OVCAR-5, 21.2 µM (inactive); with HL-60 it was 20.8 µM (inactive); in the experiment on SNB-19, 17.7 µM (inactive); in the experiment on 786-0, 19 µM (inactive); in the experiment on K562 it was 21.3 µM (inactive). The GI50 was 18.3 µM (inactive) in the experiment on M14; 20 µM (inactive) in the experiment on RPMI-8226; 18.7 µM (inactive) with UACC-257; 18.8 µM (inactive) in the experiment on UO-31; 19.6 µM (inactive) in the experiment with PC-3; 21.8 µM (inactive) in the experiment with SF-295. The GI50 was 18 µM (inactive) with OVCAR-3; 21.1 µM (inactive) in the experiment with BT-549; 21.9 µM (inactive) in the experiment with HT-29; 18.1 µM (inactive) in the experiment on DU-145; 18.7 µM (inactive) in the experiment on A498; 19.1 µM (inactive) with HCC 2998. The GI50 with COLO 205 is 19.9 µM (inactive).

As for `O=C1C=CC(=O)c2c1ccc1c3ccccc3n(Cc3cccc([N+](=O)[O-])c3)c21`, the GI50 is 26.2 µM (inactive) with MDA-MB-435; > 100 µM (inactive) with OVCAR-5; 6.9 µM (inactive) in the experiment on HL-60; > 100 µM (inactive) in the experiment with SNB-19; 22.8 µM (inactive) in the experiment on 786-0; 6.92 µM (inactive) in the experiment with K562. Besides, the GI50 with M14 is 27.7 µM (inactive); in the experiment on RPMI-8226, 17.8 µM (inactive); in the experiment on UACC-257, 23 µM (inactive); with UO-31, 50 µM (inactive); with PC-3, 30.1 µM (inactive); with SF-295, > 100 µM (inactive). Moreover, the GI50 in the experiment with OVCAR-3 is 17.1 µM (inactive); in the experiment with BT-549 it was 40.1 µM (inactive); in the experiment on HT-29, 30.4 µM (inactive); in the experiment on DU-145, > 100 µM (inactive); in the experiment on A498, 58.3 µM (inactive); in the experiment on HCC 2998 it was > 80.7 µM (inactive). For the same molecule, the GI50 in the experiment on COLO 205 was 14.3 µM (inactive).

`CC(=O)c1cc2c(Br)cccc2oc1=O`: the GI50 in the experiment on MDA-MB-435 was 54.5 µM (inactive); in the experiment with OVCAR-5, > 100 µM (inactive); with HL-60, > 100 µM (inactive); in the experiment with SNB-19 it was > 100 µM (inactive); with 786-0, > 100 µM (inactive); in the experiment with K562, 99.1 µM (inactive). The GI50 in the experiment on M14, in the experiment with RPMI-8226, in the experiment with UACC-257, with PC-3, in the experiment on SF-295 and with OVCAR-3 was > 100 µM (inactive) throughout. In addition, the GI50 in the experiment with BT-549 is 79.1 µM (inactive); in the experiment on HT-29, > 100 µM (inactive); in the experiment on DU-145, > 100 µM (inactive); with A498, > 100 µM (inactive); in the experiment with HCC 2998 it was > 100 µM (inactive); with COLO 205 it was > 100 µM (inactive).

Take `COC(=O)NN=C(c1ccc(Cl)cc1)c1ccc(Cl)cc1`: the GI50 in the experiment on MDA-MB-435, with OVCAR-5, in the experiment with HL-60, in the experiment with SNB-19, with 786-0 and with K562 was > 100 µM (inactive) each time. Moreover, the GI50 in the experiment with M14, in the experiment with RPMI-8226, in the experiment on UACC-257, in the experiment with UO-31, in the experiment with PC-3 and with OVCAR-3 was > 100 µM (inactive) throughout. Besides, the GI50 in the experiment with BT-549 is 80.2 µM (inactive); in the experiment on HT-29, 58.6 µM (inactive); in the experiment on DU-145, 80.7 µM (inactive); in the experiment with A498 it was 17.9 µM (inactive); with HCC 2998, > 100 µM (inactive); in the experiment on COLO 205, 51.2 µM (inactive).

Regarding `O=C1/C(=C\c2cccs2)Oc2ccccc21`, the GI50 was 98.6 µM (inactive) in the experiment with MDA-MB-435; > 100 µM (inactive) with OVCAR-5; 49.8 µM (inactive) in the experiment on HL-60; 75.3 µM (inactive) in the experiment on SNB-19; 77.6 µM (inactive) in the experiment with 786-0; 74.5 µM (inactive) with K562. Also, the GI50 with M14 was 84.5 µM (inactive); with RPMI-8226, 69.5 µM (inactive); with UACC-257, 63.1 µM (inactive); in the experiment with UO-31 it was 33 µM (inactive); in the experiment on PC-3, 43.2 µM (inactive); in the experiment with SF-295, 74 µM (inactive). The GI50 with OVCAR-3 is 24.9 µM (inactive); in the experiment on BT-549, 41.2 µM (inactive); in the experiment with HT-29 it was 63.7 µM (inactive); in the experiment on DU-145, 50.9 µM (inactive); in the experiment on A498, 42.3 µM (inactive); in the experiment on HCC 2998, 64.6 µM (inactive). Also, in the experiment on COLO 205, the GI50 is 75.3 µM (inactive).

With `COc1cccc(NCC(=O)Nn2c(-c3ccccc3)nc3ccccc3c2=O)c1`, the GI50 in the experiment on MDA-MB-435, in the experiment on OVCAR-5, with HL-60, in the experiment with SNB-19, in the experiment on 786-0 and in the experiment with K562 was > 100 µM (inactive) throughout. Besides, the GI50 in the experiment with M14, in the experiment on RPMI-8226, in the experiment with UACC-257, with UO-31, with PC-3 and in the experiment with SF-295 was > 100 µM (inactive) each time. Further, the GI50 in the experiment with OVCAR-3 was > 100 µM (inactive); in the experiment on BT-549 it was > 100 µM (inactive); in the experiment on HT-29, > 100 µM (inactive); with DU-145, > 100 µM (inactive); in the experiment on A498 it was 17.6 µM (inactive); in the experiment with HCC 2998 it was > 100 µM (inactive). Besides, in the experiment with COLO 205, the GI50 was > 100 µM (inactive).

`CCCCCC(C)SC1(C(=O)OC)CC(OC(C)=O)C(NC(C)=O)C([C@H](OC(C)=O)[C@@H](COC(C)=O)OC(C)=O)O1` (stereo partly specified): the GI50 in the experiment with MDA-MB-435 is 70.1 µM (inactive); in the experiment with OVCAR-5 it was > 100 µM (inactive); in the experiment with HL-60, 42.5 µM (inactive); in the experiment on SNB-19, > 100 µM (inactive); in the experiment on 786-0 it was 47 µM (inactive); in the experiment with K562 it was 92.9 µM (inactive). The GI50 in the experiment with M14 was 71 µM (inactive); in the experiment on RPMI-8226, 33.7 µM (inactive); with UACC-257, 33 µM (inactive); in the experiment with UO-31, 38.5 µM (inactive); in the experiment on PC-3, 67.3 µM (inactive); in the experiment on SF-295, > 100 µM (inactive). Moreover, the GI50 was 90.4 µM (inactive) in the experiment on OVCAR-3; 55.6 µM (inactive) in the experiment with BT-549; 22.5 µM (inactive) with HT-29; > 100 µM (inactive) in the experiment on DU-145; 67.1 µM (inactive) in the experiment with A498; 30.2 µM (inactive) in the experiment with HCC 2998.

As for `CC(=O)O[C@H]1C(=O)[C@@]2(C)[C@H]([C@H](OC(=O)c3ccc(F)cc3)[C@]3(O)C[C@H](OC(=O)[C@H](O)[C@@H](NC(=O)c4ccccc4)c4ccccc4)C(C)=C1C3(C)C)[C@]1(OC(C)=O)CO[C@@H]1C[C@@H]2O`, the GI50 in the experiment with MDA-MB-435 was 0.0025 µM (active); in the experiment with OVCAR-5 it was 0.0222 µM (active); with HL-60 it was 0.00469 µM (active); in the experiment on SNB-19 it was 0.0306 µM (active); with 786-0, 0.084 µM (active); in the experiment with K562 it was 0.00859 µM (active). The concentration for 50% growth inhibition (GI50) is 0.0559 µM (active) with M14; 0.00592 µM (active) with RPMI-8226; 0.0399 µM (active) with UACC-257; 5.92 µM (inactive) with UO-31; 0.0112 µM (active) in the experiment with PC-3; 0.168 µM (active) in the experiment on SF-295. The GI50 is 0.00557 µM (active) in the experiment on OVCAR-3; 0.64 µM (active) in the experiment with BT-549; 0.00678 µM (active) in the experiment with HT-29; 0.0395 µM (active) in the experiment on DU-145; 0.202 µM (active) in the experiment with A498; 0.0107 µM (active) with HCC 2998. Besides, in the experiment with COLO 205, the GI50 was 0.0108 µM (active).

Turning to `c1ccc(C2=NN=C3C(c4ccccc4)=Nc4ccccc4N3C2)cc1`, the GI50 in the experiment with MDA-MB-435 was 17.7 µM (inactive); in the experiment with OVCAR-5, 32.2 µM (inactive); with HL-60, 3.56 µM (inactive); in the experiment with SNB-19 it was 24.2 µM (inactive); in the experiment with 786-0, 11.9 µM (inactive); in the experiment on K562, 13.9 µM (inactive). Further, the GI50 in the experiment with M14 is 13.7 µM (inactive); in the experiment on RPMI-8226 it was 9.42 µM (inactive); with UACC-257, 7.55 µM (inactive); in the experiment with UO-31 it was 7.43 µM (inactive); in the experiment on PC-3, 21.5 µM (inactive); in the experiment with OVCAR-3 it was 3.37 µM (inactive). Moreover, the GI50 in the experiment with BT-549 was 32.4 µM (inactive); in the experiment with HT-29, 23.3 µM (inactive); with DU-145 it was 7.94 µM (inactive); in the experiment on A498, > 80.2 µM (inactive); with HCC 2998 it was 22.4 µM (inactive); in the experiment on COLO 205 it was 20.5 µM (inactive).

The term GI50 denotes the concentration at which growth is held to half of that of the control.
